Laboratory results taken from patent US10507242B2, “Combination therapy for treating breast cancer” (Genzyme Corporation, priority 2010, dated 2019).
Entries after “also recorded” stand apart in the source; their conditions may differ.

What was measured:
[1] = Study 2 (09-3494): toxicity observations; assay type: in vivo, Balb/c mice; conditions: ixabepilone 3 mg/kg, capecitabine 360 mg/kg, antibody 10 mg/kg
subcutaneous 4T1 tumors [2] = experiment: Study 1 (09-3493): primary tumor growth, survival and time to endpoint in the syngeneic SQ 4T1 model; conditions: for effect on SQ 4T1 primary tumor growth: antibody 10 mg/kg IP 3x/week, ixabepilone 6 mg/kg IV Q4Dx3, capecitabine 360 mg/kg oral QDx14
Source text: • Time points: Day 0: Investigators inject 50,000 4T1 cells+[…] ® subcutaneously in the right flank • Day 3: Investigators begin 2-3×/week tumor measurements • Day 6: DCM Staff begin antibody dosing IP 3×/week • DCM Staff begin ixabepilone dosing IV Q4D×3 • DCM Staff begin capecitabine dosing by oral gavage QD×14 • Animals were sacrificed when the primary tumors reached a volume of 2000 mm^3 or prior to the study takedown if they presented with moribund conditions (lack of grooming, labored breathing, cachexia, anorexia, or lethargy).
On Day 0, 150 twelve week-old female BALB/c mice each received subcutaneous injections of 50,000 4T1 cells in […] ® in the right flank. Tumor-bearing mice were routinely monitored and regular tumor measurements 2-3×/week were conducted beginning on Day 6. Tumor volume was determined using the following formula: Tumor Volume=Length×Width^2×0.52
Six days after tumor cell injection, when tumor volumes averaged 80 mm^3, the animals were size-matched and divided into twelve treatment groups of ten mice each. […] At this point investigators were blinded to treatment group designations and therapeutic administration was initiated. All mice received 10 mg/kg of either 1D11, 13C4 or antibody vehicle administered in 100 μl IP three times per week (Table 1). Specific cohorts of mice received additional treatments of ixabepilone (6 mg/kg in 200□1 IV Q4D×3), capecitabine (360 mg/kg in 100 μl by oral gavage QD×14) or both.
Mice were sacrificed once primary tumor volumes reached 2000 mm^3 or greater or if the tumors became ulcerated>20% of the tumor's surface area, or if the animals presented with moribund conditions (lack of grooming, labored breathing, cachexia, anorexia or lethargy). Upon sacrifice, gross necropsies were performed and tumors, lungs and other tissues bearing metastases were harvested.

subcutaneous 4T1 tumors [3] = experiment: Study 2 (09-3494): primary tumor growth in the SQ 4T1 model; assay type: in vivo, Balb/c mice; conditions: for effect on SQ 4T1 primary tumor growth / tumor volume: antibody 10 mg/kg IP 3x/week, ixabepilone 3 mg/kg IV Q4Dx3, capecitabine 360 mg/kg oral QDx14, to Day 23
Source text: Treatment groups, time points, and tissues were similar to the study described above.
For proper analysis of metastasis, all mice were sacrificed on study Day 23. […] The primary tumor was bisected, with one half frozen in OCT and the other half stored in RNALATER™ for qPCR analysis. The lungs were fixed in zinc-buffered formalin for enumeration of pulmonary mets and subsequent IHC analysis.

subcutaneous 4T1 tumors [4] = experiment: Study 3 (09-4255): primary tumor growth in the SQ 4T1 model; assay type: in vivo, BALB/c mice; conditions: for effect on SQ 4T1 primary tumor growth: antibody IP 3x/week, ixabepilone 3 mg/kg IV every four days x3, capecitabine 360 mg/kg oral 14 days; for day cohort reached size endpoint (mean tumor volume 1500 mm^3): per cohort
Source text: The remaining 30 animals were included into a companion experiment to this study, looking for the effects of 1D11 on macrophage recruitment and activity (see below).
An entire cohort of mice was sacrificed when the average tumor volume for a single group within that cohort reached […] or greater.

[5] = tested on: 4T1 experimental metastases; experiment: 4T1 model of experimental metastasis (intracardiac injection); assay type: in vivo, mouse; conditions: 4T1 cells injected into left ventricle of the heart
Source text: 1D11 was combined with paclitaxel in both a xenograft (MDA-MB-231) breast cancer model and the syngeneic 4T1 model of breast cancer. […] The MDA-MB-231 and 4T1 models were also used to test combinatorial therapies with 1D11 and the platinum compounds cisplatin or carboplatin.

[6] = Study 1 (09-3493): treatment-related adverse events; assay type: in vivo; conditions: ixabepilone 6 mg/kg, capecitabine 360 mg/kg, antibody 10 mg/kg
Source text: • Time points: Day 0: Investigators inject 50,000 4T1 cells+[…] ® subcutaneously in the right flank • Day 3: Investigators begin 2-3×/week tumor measurements • Day 6: DCM Staff begin antibody dosing IP 3×/week • DCM Staff begin ixabepilone dosing IV Q4D×3 • DCM Staff begin capecitabine dosing by oral gavage QD×14 • Animals were sacrificed when the primary tumors reached a volume of 2000 mm^3 or prior to the study takedown if they presented with moribund conditions (lack of grooming, labored breathing, cachexia, anorexia, or lethargy). After sacrifice, the primary tumor was halved with one half embedded in OCT, and the other placed in zinc buffered formalin. The lungs and any other tissues bearing metastases were harvested and stored in zinc buffered formalin for enumeration of lung mets and IHC. • Tissues: Primary tumors m OCT and zinc buffered formalin, lungs harvested in zinc buffered formalin for assessment of metastasis and subsequent IHC.
Mice were sacrificed once primary tumor volumes reached 2000 mm^3 or greater or if the tumors became ulcerated>20% of the tumor's surface area, or if the animals presented with moribund conditions (lack of grooming, labored breathing, cachexia, anorexia or lethargy). Upon sacrifice, gross necropsies were performed and tumors, lungs and other tissues bearing metastases were harvested. […]

| SMILES | toxicity during dosing [1] | effect on SQ 4T1 primary tumor growth (subcutaneous 4T1 tumors [2]) | average size of the tumors at the time of study take down (subcutaneous 4T1 tumors [3]; Day 23, average of cohort (vehicle, 13C4 or 1D11 plus the chemotherapeutic)) [mm^3] | effect on SQ 4T1 primary tumor growth / tumor volume (subcutaneous 4T1 tumors [3]) | effect on SQ 4T1 primary tumor growth (subcutaneous 4T1 tumors [4]) | day cohort reached size endpoint (mean tumor volume 1500 mm^3) (subcutaneous 4T1 tumors [4]) [study day] | inhibition of metastases [5] | treatment-related toxicities [6] | survival (subcutaneous 4T1 tumors [2]; same dosing, sacrifice at tumor volume 2000 mm^3 or moribund) |
| --- | --- | --- | --- | --- | --- | --- | --- | --- | --- |
| CCCCCOC(=O)Nc1nc(=O)n([C@@H]2O[C@H](C)[C@@H](O)[C@H]2O)cc1F [capecitabine] | no toxicity issues observed | did inhibit tumor growth; also recorded: Inhibition of tumor growth; also recorded: inhibited 4T1 tumor growth but was not as efficacious as ixabepilone | ~700 | trend towards inhibited growth of the primary tumors; also recorded: Inhibition of tumor growth | very modest tumor growth inhibition; also recorded: Inhibition of tumor growth; also recorded: inhibited 4T1 tumor growth slightly | 27 | – | – | – |
| N.N.[Cl][Pt][Cl] [cisplatin] | – | – | – | – | – | – | able to inhibit metastases particularly to the bone | – | – |
| C/C(=C\c1csc(C)n1)[C@@H]1C[C@@H]2O[C@]2(C)CCC[C@H](C)[C@H](O)[C@@H](C)C(=O)C(C)(C)[C@@H](O)CC(=O)N1 [ixabepilone] | no toxicity issues observed; also recorded: no animals in the study displayed signs of toxicity | most efficacious at inhibiting 4T1 tumor growth compared to either antibody therapy or capecitabine; also recorded: Inhibition of tumor growth | – | significant reduction in tumor volume; also recorded: Inhibition of tumor growth | most efficacious at inhibiting 4T1 tumor growth as a monotherapy; also recorded: Inhibition of tumor growth | 29 | – | some peripheral neuropathy | greater than that of either the antibody or the capecitabine cohorts |
